Experimental data reported in patent publication US20240358848A1, “ANTITUMOR COMPOUND AND USE THEREOF” (priority 2021, published 2024).
Like-named read-outs stand apart in the source and are kept apart here.

System: KPL-4 Cells
Experiment: Cell proliferation inhibition assay (CellTiter-Glo, 72 h)
Type: cell-based
Protocol: KPL-4 Cells in the logarithmic phase of growth were collected and re-suspended with fresh RPMI1640 complete cell culture medium, and adjusted to 2×10^4 cells/mL after cell counting. Cells were seeded into 96-well cell culture plates at 100 μL/well, and placed in a CO2 incubator (37° C., 5% CO2) overnight. In the next day, one of the cell culture plates were taken out, balanced to room temperature, and CellTiter-Glo reagent (Promega, USA), which was pre-balanced to room temperature and evenly mixed, was added into the plate at 100 μl/well. The plate was kept in dark for 30 min, and then luminescence value was read with a microplate reader (denoted as G0 value). The other cell culture plates were taken out and added with different concentrations of test compounds or DMSO (final concentration 0.5%) in corresponding wells. After incubated for 72 h in a CO2 incubator, the cell culture plates were balanced to room temperature and tested for cell viabilities using CellTiter-Glo reagent as described above (denoted as G3 value).
The cell proliferation rates were calculated using the following formula: Cell proliferation rate (%)=(mean of G3compound−mean of G0)/(mean of G3DMSO−mean of G0)×100.

[1] = KPL4, KPL-4, 72 h, read-out: GI50

Row | Structure (SMILES) | GI50 (KPL4, 72 h) | GI50 [1]
1 | CC[C@@]1(O)C(=O)OCc2c1cc1n(c2=O)Cc2c-1nc1cc(F)c(C)c3c1c2[C@@H](NC(=O)CO)CC3 [DXd, reference compound] | 72 nM | –
2 | CC[C@@]1(O)C(=O)OCc2c1cc1n(c2=S)Cc2c-1nc1cc(F)c(C)c3c1c2[C@@H](NC(=O)CO)CC3 [X] | – | 13.9 nM
3 | CC[C@@]1(O)C(=O)OCc2c1cc1n(c2=S)Cc2c-1nc1cc(F)c(C)c3c1c2[C@H](NC(=O)CO)CC3 [Y] | – | 10.3 nM
